Measured values published in US10781209B2, “1H-pyrrolo[2,3-c]pyridin-7(6H)-ones and pyrazolo[3,4-c]pyridin-7(6H)-ones as inhibitors of BET proteins” (Incyte Corporation, priority 2014, dated 2020).

Tested on: KMS.12.BM cells
Assay: KMS.12.BM cell viability assay (Cell Titer-GLO, ATP quantitation)
Type: cell-based
Settings: 72 h, human myeloma cell line, 3 days, concentration required for 50% cell death
Protocol: KMS.12.BM cell line (human myeloma) was purchased from JCRB (Osaka, Japan) and maintained in RPMI with 10% FBS culture medium. To measure the cytotoxic activity of the compounds through ATP quantitation, the KMS.12.BM cells are plated in the RPMI culture medium at 5000 cells/well/per 100 μL into a 96-well polystyrene clear black tissue culture plate (Greiner-bio-one through VWR, NJ), in the presence or absence of a concentration range of test compounds. After 3 days, […] Cell Titer-GLO Luminescent (Promega, Madison, Wis.) cell culture agent is added to each well for 10 minutes at room temperature to stabilize the luminescent signal. This determines the number of viable cells in culture based on quantitation of the ATP present, which signals the presence of metabolically active cells. Luminescence is measured with the Top Count 384 (Packard Bioscience through Perkin Elmer, Boston, Mass.). Compound inhibition is determined relative to cells cultured with no drug and the IC50 is reported as the compound concentration required for 50% cell death.

For Cn1cc(-c2cccc3c2OC(c2ccccn2)C(=O)N3)c2cc[nH]c2c1=O (stereo not shown) [Example 5, 8-(6-methyl-7-oxo-6,7-dihydro-1H-pyrrolo[2,3-c]pyridin-4-yl)-2-pyridin-2-yl-2H-1,4-benzoxazin-3(4H)-one 2,2,2-trifluoroacetate], which IC50 is on record?
Its IC50 is at most 1 µM.
